Laboratory results as given in publication PMC6704710, “Preclinical evaluation of 3D185, a novel potent inhibitor of FGFR1/2/3 and CSF-1R, in FGFR-dependent and macrophage-dominant cancer models” (Journal of Experimental & Clinical Cancer Research : CR, 2019).

Tests used:
Assay in all cases: Eurofins kinase panel
Format in all cases: biochemical
CaMKIß(h) = target: T1, CaMKIß(h) (Homo sapiens, UniProt Q6P2M8); conditions: read-out: Inhibition rate (%)
T1 construct: purchased Eurofins (KinaseProfiler)

EphB3(h) = target: T2, EphB3(h) (Homo sapiens, UniProt P54753); conditions: read-out: Inhibition rate (%)
T2 construct: purchased Eurofins (KinaseProfiler)
T2 sequence (P54753 34-998): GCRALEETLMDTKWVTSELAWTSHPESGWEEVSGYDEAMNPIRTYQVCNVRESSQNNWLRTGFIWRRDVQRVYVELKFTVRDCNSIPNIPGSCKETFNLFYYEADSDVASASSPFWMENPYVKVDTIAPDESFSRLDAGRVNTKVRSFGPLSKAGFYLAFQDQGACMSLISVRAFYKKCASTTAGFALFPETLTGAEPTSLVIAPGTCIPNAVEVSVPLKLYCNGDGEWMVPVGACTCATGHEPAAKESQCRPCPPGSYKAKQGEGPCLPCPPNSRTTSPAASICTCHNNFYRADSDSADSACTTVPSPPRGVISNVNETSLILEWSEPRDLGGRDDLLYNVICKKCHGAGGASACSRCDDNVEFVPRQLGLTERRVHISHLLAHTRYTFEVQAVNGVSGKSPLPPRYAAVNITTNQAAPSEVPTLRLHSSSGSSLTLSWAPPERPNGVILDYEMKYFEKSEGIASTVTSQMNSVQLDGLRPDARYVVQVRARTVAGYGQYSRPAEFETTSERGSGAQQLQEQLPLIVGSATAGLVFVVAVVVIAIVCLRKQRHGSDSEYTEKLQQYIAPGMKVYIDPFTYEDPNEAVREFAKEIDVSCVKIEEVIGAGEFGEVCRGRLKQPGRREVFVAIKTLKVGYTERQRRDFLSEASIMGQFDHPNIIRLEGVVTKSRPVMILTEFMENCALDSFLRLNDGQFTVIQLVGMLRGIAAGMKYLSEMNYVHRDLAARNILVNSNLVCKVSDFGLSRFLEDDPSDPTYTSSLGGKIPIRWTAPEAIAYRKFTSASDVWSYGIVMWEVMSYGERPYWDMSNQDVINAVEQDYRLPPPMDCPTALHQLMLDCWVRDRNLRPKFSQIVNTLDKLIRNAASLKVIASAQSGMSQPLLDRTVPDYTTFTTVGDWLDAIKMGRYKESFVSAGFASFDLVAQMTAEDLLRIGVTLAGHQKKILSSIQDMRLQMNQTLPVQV

Met(Y1248H)(h) = target: T3, Met(Y1248H)(h) (Homo sapiens, UniProt P08581, Y1230H); conditions: read-out: Inhibition rate (%)
T3 construct: purchased Eurofins (KinaseProfiler)

PAR-1Bα(h) = target: T4, PAR-1Bα(h) (Homo sapiens, UniProt Q7KZI7); conditions: read-out: Inhibition rate (%)
T4 construct: purchased Eurofins (KinaseProfiler)

PRKG2(h) = target: T5, PRKG2(h) (Homo sapiens, UniProt Q13237); conditions: read-out: Inhibition rate (%)
T5 construct: purchased Eurofins (KinaseProfiler)
T5 sequence (Q13237 1-762): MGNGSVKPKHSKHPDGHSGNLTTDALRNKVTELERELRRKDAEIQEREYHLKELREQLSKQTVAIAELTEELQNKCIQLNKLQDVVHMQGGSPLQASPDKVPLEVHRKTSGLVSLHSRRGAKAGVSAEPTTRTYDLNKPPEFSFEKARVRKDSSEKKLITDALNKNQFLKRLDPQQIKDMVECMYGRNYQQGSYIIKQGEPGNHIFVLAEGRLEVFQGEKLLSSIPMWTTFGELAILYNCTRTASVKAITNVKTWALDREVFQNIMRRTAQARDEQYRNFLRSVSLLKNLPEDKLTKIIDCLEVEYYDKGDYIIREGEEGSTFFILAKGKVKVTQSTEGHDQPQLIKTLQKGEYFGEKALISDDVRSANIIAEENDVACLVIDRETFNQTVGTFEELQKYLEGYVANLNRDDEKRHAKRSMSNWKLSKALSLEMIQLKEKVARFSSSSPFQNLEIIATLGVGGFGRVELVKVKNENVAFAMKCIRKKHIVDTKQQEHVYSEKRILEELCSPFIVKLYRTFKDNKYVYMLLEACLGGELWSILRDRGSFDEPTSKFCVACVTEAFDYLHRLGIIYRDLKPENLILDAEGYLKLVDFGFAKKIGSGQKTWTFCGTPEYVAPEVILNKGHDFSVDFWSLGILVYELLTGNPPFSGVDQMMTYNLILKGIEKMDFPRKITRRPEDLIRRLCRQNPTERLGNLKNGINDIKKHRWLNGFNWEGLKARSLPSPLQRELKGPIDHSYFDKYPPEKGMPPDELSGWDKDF

ROCK-II(r) = test system: ROCK-II(r)
Ret (V804L)(h) = target: T6, Ret (V804L)(h) (Homo sapiens, UniProt P07949, V804L); conditions: read-out: Inhibition rate (%)
T6 construct: purchased Eurofins (KinaseProfiler)

Tie2(R849W)(h) = target: T7, Tie2(R849W)(h) (Homo sapiens, UniProt Q02763, R849W); conditions: read-out: Inhibition rate (%)
T7 construct: purchased Eurofins (KinaseProfiler)

ZIPK(h) = target: T8, ZIPK(h) (Homo sapiens, UniProt O43293); conditions: read-out: Inhibition rate (%)
T8 construct: purchased Eurofins (KinaseProfiler)
T8 sequence (O43293 whole entry): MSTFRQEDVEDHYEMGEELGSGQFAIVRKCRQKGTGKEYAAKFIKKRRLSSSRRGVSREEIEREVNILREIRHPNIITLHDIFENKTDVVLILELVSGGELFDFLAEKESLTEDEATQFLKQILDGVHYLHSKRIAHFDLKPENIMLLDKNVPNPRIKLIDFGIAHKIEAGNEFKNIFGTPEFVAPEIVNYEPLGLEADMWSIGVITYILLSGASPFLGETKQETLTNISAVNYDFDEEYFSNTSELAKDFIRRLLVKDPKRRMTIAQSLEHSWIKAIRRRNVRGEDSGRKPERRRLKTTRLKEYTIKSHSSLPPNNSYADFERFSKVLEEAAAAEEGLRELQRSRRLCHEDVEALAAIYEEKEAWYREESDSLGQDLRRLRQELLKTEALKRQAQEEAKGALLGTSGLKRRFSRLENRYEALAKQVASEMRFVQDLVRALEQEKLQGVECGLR

T1 sequence (Q6P2M8 whole entry): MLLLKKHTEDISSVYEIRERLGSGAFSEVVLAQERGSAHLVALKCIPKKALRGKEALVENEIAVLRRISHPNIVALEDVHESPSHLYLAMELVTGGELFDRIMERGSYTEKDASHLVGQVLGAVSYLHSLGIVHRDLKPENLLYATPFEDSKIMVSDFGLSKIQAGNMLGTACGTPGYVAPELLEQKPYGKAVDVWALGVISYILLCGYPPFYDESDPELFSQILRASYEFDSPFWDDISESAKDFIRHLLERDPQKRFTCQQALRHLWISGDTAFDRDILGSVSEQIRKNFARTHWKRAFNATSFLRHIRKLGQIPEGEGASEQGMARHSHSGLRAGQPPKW
T3 sequence (P08581 956-1390 Y1230H limits assumed): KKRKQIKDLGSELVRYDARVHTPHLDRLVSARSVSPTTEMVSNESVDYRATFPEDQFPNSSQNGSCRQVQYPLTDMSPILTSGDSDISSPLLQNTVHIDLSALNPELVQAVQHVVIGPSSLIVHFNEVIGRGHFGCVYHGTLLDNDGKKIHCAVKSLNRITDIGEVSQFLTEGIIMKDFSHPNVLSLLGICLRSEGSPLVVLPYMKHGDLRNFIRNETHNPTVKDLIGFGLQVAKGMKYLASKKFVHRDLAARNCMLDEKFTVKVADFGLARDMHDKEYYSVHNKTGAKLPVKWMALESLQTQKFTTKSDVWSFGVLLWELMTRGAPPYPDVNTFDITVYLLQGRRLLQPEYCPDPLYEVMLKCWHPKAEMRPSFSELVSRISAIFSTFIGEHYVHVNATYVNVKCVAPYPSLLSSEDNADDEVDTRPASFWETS
T4 sequence (Q7KZI7 1-725 isoform Q7KZI7-4): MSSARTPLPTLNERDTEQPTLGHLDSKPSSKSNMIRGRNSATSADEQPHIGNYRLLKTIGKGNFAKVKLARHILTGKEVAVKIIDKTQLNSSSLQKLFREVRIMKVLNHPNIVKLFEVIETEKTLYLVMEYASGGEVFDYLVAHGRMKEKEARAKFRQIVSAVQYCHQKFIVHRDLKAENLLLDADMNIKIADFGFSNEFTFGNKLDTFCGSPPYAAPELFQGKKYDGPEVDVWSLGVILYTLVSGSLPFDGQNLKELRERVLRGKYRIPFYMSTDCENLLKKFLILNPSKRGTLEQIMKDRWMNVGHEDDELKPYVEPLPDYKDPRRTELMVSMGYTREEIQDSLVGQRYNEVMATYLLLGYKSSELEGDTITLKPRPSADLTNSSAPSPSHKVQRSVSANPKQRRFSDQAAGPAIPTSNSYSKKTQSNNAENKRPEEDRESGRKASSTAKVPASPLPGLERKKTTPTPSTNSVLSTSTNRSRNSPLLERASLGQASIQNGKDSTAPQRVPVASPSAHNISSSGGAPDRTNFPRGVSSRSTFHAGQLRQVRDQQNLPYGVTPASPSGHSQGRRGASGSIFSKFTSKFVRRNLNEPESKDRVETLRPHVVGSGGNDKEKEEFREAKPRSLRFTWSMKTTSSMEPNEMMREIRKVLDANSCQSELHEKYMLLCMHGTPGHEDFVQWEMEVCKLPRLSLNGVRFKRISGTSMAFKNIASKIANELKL
T7 sequence (Q02763 23-1124 R849W): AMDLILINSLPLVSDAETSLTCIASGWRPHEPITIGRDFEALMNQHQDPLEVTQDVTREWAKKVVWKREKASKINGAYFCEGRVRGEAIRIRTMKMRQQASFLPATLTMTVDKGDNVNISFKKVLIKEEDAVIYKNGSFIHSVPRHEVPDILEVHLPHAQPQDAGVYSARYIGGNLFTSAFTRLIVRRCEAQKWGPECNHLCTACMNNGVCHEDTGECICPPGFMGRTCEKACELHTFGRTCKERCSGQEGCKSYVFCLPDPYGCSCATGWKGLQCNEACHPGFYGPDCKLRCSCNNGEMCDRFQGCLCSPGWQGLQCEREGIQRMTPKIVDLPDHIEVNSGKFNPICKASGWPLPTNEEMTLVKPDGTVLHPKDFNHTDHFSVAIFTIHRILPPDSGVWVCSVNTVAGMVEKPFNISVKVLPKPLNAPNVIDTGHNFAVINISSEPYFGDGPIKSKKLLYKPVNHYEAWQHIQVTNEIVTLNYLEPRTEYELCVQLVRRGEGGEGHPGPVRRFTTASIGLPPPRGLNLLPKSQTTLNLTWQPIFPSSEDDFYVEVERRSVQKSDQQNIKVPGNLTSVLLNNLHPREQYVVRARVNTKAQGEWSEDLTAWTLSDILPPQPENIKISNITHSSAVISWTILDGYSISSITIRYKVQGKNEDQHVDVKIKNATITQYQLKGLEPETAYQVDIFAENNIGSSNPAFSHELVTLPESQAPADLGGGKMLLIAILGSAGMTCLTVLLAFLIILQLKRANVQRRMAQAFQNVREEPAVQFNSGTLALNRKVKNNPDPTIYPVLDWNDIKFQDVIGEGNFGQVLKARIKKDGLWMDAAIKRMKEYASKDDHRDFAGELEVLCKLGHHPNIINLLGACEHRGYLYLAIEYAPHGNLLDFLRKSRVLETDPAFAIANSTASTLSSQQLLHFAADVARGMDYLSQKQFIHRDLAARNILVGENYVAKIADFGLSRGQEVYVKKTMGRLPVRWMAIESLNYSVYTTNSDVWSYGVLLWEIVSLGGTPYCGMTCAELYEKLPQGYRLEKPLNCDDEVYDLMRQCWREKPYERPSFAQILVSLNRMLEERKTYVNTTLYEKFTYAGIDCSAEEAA
T6 sequence (P07949 29-1114 V804L): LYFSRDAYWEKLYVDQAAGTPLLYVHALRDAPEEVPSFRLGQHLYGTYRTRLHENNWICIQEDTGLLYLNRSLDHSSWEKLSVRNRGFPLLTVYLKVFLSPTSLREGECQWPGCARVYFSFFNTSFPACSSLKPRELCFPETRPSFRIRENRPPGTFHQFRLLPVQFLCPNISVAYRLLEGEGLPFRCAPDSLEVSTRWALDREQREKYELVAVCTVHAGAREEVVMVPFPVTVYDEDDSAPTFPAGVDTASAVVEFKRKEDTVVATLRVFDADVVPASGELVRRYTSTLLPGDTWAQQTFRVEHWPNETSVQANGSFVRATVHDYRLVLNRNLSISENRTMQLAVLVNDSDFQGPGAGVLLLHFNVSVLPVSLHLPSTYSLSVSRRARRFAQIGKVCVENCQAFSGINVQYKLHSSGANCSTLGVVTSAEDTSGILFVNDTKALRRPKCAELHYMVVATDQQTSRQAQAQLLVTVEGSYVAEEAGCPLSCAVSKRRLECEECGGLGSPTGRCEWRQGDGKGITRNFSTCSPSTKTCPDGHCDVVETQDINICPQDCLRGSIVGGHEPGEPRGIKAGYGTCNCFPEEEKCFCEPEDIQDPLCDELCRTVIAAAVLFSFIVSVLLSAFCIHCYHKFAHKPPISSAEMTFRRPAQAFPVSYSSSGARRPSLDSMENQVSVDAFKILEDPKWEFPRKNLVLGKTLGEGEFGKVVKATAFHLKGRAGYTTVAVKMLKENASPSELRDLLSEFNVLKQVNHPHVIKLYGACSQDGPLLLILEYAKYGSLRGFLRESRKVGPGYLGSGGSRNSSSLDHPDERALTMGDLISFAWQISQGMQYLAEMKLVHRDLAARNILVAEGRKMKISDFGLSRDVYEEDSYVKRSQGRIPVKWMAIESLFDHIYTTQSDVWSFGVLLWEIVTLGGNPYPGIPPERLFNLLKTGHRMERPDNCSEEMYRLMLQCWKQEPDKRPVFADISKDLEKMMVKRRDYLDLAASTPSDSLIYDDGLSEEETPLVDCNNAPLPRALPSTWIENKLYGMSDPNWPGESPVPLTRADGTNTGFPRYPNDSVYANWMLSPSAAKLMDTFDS

COc1cc(OC)c(Cl)c(-c2ccc3c(NC(=O)c4ccc(N5CCNC(C)(C)C5)cc4)n[nH]c3n2)c1Cl [3D185]
inhibition at 0.01 µM (CaMKIß(h); 10 nM): -2%
inhibition at 0.1 µM (CaMKIß(h); 100 nM): 6%
inhibition at 1 µM (CaMKIß(h); 1000 nM): 32%
inhibition at 0.01 µM (EphB3(h); 10 nM): 13%
inhibition at 0.1 µM (EphB3(h); 100 nM): 1%
inhibition at 1 µM (EphB3(h); 1000 nM): 5%
inhibition at 0.01 µM (Met(Y1248H)(h); 10 nM): -16%
inhibition at 0.1 µM (Met(Y1248H)(h); 100 nM): 8%
inhibition at 1 µM (Met(Y1248H)(h); 1000 nM): 46%
inhibition at 0.01 µM (PAR-1Bα(h); 10 nM): -4%
inhibition at 0.1 µM (PAR-1Bα(h); 100 nM): -3%
inhibition at 1 µM (PAR-1Bα(h); 1000 nM): 2%
inhibition at 0.01 µM (PRKG2(h); 10 nM): 1%
inhibition at 0.1 µM (PRKG2(h); 100 nM): 3%
inhibition at 1 µM (PRKG2(h); 1000 nM): 3%
Inhibition rate (%) (ROCK-II(r); 10 nM): -3%
Inhibition rate (%) (ROCK-II(r); 100 nM): 0%
Inhibition rate (%) (ROCK-II(r); 1000 nM): -1%
inhibition at 0.01 µM (Ret (V804L)(h); 10 nM): -13%
inhibition at 0.1 µM (Ret (V804L)(h); 100 nM): -15%
inhibition at 1 µM (Ret (V804L)(h); 1000 nM): 20%
inhibition at 0.01 µM (Tie2(R849W)(h); 10 nM): -6%
inhibition at 0.1 µM (Tie2(R849W)(h); 100 nM): 39%
inhibition at 1 µM (Tie2(R849W)(h); 1000 nM): 86%
inhibition at 0.01 µM (ZIPK(h); 10 nM): -3%
inhibition at 0.1 µM (ZIPK(h); 100 nM): 0%
inhibition at 1 µM (ZIPK(h); 1000 nM): 2%
